For 2 molecules, MIC99 results are on record in publication PMC6022709 (BMC Research Notes, 2018).

The subject of this assay is M. tuberculosis resistant isolates. In kind it is cell-based, Mycobacterium tuberculosis. As to conditions: solid medium 7H10 with 10% v/v OADC, 3–4 weeks.

SMILES strings stand for the structures. In brackets after ≈: the same amount, converted by molar mass. Read-outs that look alike come from different tables or passages of the source.

Take `CC(C)CC1C(=O)N2NCCCC2C(=O)N2NCCCC2C(=O)N(C)C(Cc2ccccc2)C(=O)N2CCCC2C(=O)NC(C(C)C)C(=O)N1O` (stereo not drawn) [Compound 3]: the MIC99 (as a rule, the lowest concentration that inhibits either 99% of growth or 99% of the strains tested, depending on the study) runs as follows: (strain LP-0458686-RM1) 3.1 µM (≈ 2.2 µg/mL); (strain LP-0458686-RM2) 3.1 µM (≈ 2.2 µg/mL); (strain LP-0458686-RM3) 3.1 µM (≈ 2.2 µg/mL).

With `CC(C)CC1C(=O)N2NCCCC2C(=O)N2NCCCC2C(=O)N(C)C(Cc2ccccc2)C(=O)N2CCCC2C(=O)NC(Cc2ccccc2)C(=O)N1O` (stereo not drawn) [Compound 1, cyclo[N-(Me)Phe-Pro-Phe-N-(OH)Leu-Piz-Piz]], the MIC99 (strain LP-0458690-RM1) was 13 µM (≈ 9.87 µg/mL); the MIC99 (strain LP-0458690-RM2) worked out at 25 µM (≈ 19 µg/mL); the MIC99 (strain LP-0458690-RM3) is 25 µM (≈ 19 µg/mL); the MIC99 (strain LP-0458690-RM4) was found to be 25 µM (≈ 19 µg/mL); the MIC99 (strain LP-0458690-RM5) worked out at 25 µM (≈ 19 µg/mL); the MIC99 (strain LP-0458690-RM6) amounted to 25 µM (≈ 19 µg/mL).
